Data reported in patent US20060009470A1, “Method for specifically potentiating N-type Ca2+ channel activity” (Shuji KANEKO, priority 2001, published 2006).

Columns and labels:
Type in all cases: cell-based, rabbit
[1] = biological target: T1, α1E channel (voltage-dependent calcium channel α1E with α2δ1 and β1b) (Oryctolagus cuniculus, UniProt Q02343); test: two electrode voltage-clamp, Ba2+ current in Xenopus oocytes expressing α1E channel; conditions: 100 nM test compound; 0 mV, 200 ms test pulse; Xenopus oocyte
T1 construct: expressed in transfected cells; host or cells: Xenopus laevis oocytes injected with mRNAs
Protocol: (§1) Ovary was removed from the abdominal cavity of Xenopus laevis and treated with collagenase to remove follicle covering the oocyte (Kinoshita et al., J. Biol. Chem. 276, 28731-28738 (2001)). A combination of three kinds of mRNAs (16.7 ng each) of voltage-dependent calcium channel subunits α1A, α1B or α1E of rabbit and human α2δ1 and β1b (prepared according to the method described in Kinoshita et al., supra or a similar method) was mixed and injected into the oocyte and this was incubated in modified Birth's saline (88 mM NaCl, 1 mM KCl, 0.41 mM CaCl2, 0.33 mM Ca(NO3)2, 0.82 mM MgSO4, 2.4 mM NaHCO3, 7.5 mM Tris-HCl, 10 U/ml penicillin, 10 μg/ml streptomycin, pH 7.6) at 22° C. for 2 to 4 days.
(§2) The oocyte prepared in the above was placed in a chamber filled with a Ba^2+-containing recording liquid (10 mM Ba(OH)2, 90 mM NaOH, 2 mM KOH, 5 mM Hepes, 0.3 mM niflumic acid, methanesulfonic acid, pH 7.4) and fixed at −80 mV using two glass electrodes. A test pulse (200 ms width) toward 0 mV was applied at 30 second intervals and the whole-cell membrane current was measured. A +100 mV depolarization prepulse (100 ms width) that ends before 40 ms was applied every other pulse to eliminate the effect of G protein βγ subunit that binds with Ca^2+ channel to suppress opening (Kinoshita et al., supra). […]

[2] = biological target: T2, α1A channel (voltage-dependent calcium channel α1A with α2δ1 and β1b) (Oryctolagus cuniculus, UniProt P27884); test: two electrode voltage-clamp, Ba2+ current in Xenopus oocytes expressing α1A channel; conditions: 100 nM test compound; 0 mV, 200 ms test pulse; Xenopus oocyte
T2 construct: expressed in transfected cells; host or cells: Xenopus laevis oocytes injected with mRNAs
Protocol: as §1, §2

[3] = biological target: T3, α1B channel (voltage-dependent calcium channel α1B with α2δ1 and β1b) (Oryctolagus cuniculus, UniProt Q05152); test: two electrode voltage-clamp, Ba2+ current in Xenopus oocytes expressing α1B channel
T3 construct: expressed in transfected cells; host or cells: Xenopus laevis oocytes injected with mRNAs
T3 sequence (Q05152 whole entry): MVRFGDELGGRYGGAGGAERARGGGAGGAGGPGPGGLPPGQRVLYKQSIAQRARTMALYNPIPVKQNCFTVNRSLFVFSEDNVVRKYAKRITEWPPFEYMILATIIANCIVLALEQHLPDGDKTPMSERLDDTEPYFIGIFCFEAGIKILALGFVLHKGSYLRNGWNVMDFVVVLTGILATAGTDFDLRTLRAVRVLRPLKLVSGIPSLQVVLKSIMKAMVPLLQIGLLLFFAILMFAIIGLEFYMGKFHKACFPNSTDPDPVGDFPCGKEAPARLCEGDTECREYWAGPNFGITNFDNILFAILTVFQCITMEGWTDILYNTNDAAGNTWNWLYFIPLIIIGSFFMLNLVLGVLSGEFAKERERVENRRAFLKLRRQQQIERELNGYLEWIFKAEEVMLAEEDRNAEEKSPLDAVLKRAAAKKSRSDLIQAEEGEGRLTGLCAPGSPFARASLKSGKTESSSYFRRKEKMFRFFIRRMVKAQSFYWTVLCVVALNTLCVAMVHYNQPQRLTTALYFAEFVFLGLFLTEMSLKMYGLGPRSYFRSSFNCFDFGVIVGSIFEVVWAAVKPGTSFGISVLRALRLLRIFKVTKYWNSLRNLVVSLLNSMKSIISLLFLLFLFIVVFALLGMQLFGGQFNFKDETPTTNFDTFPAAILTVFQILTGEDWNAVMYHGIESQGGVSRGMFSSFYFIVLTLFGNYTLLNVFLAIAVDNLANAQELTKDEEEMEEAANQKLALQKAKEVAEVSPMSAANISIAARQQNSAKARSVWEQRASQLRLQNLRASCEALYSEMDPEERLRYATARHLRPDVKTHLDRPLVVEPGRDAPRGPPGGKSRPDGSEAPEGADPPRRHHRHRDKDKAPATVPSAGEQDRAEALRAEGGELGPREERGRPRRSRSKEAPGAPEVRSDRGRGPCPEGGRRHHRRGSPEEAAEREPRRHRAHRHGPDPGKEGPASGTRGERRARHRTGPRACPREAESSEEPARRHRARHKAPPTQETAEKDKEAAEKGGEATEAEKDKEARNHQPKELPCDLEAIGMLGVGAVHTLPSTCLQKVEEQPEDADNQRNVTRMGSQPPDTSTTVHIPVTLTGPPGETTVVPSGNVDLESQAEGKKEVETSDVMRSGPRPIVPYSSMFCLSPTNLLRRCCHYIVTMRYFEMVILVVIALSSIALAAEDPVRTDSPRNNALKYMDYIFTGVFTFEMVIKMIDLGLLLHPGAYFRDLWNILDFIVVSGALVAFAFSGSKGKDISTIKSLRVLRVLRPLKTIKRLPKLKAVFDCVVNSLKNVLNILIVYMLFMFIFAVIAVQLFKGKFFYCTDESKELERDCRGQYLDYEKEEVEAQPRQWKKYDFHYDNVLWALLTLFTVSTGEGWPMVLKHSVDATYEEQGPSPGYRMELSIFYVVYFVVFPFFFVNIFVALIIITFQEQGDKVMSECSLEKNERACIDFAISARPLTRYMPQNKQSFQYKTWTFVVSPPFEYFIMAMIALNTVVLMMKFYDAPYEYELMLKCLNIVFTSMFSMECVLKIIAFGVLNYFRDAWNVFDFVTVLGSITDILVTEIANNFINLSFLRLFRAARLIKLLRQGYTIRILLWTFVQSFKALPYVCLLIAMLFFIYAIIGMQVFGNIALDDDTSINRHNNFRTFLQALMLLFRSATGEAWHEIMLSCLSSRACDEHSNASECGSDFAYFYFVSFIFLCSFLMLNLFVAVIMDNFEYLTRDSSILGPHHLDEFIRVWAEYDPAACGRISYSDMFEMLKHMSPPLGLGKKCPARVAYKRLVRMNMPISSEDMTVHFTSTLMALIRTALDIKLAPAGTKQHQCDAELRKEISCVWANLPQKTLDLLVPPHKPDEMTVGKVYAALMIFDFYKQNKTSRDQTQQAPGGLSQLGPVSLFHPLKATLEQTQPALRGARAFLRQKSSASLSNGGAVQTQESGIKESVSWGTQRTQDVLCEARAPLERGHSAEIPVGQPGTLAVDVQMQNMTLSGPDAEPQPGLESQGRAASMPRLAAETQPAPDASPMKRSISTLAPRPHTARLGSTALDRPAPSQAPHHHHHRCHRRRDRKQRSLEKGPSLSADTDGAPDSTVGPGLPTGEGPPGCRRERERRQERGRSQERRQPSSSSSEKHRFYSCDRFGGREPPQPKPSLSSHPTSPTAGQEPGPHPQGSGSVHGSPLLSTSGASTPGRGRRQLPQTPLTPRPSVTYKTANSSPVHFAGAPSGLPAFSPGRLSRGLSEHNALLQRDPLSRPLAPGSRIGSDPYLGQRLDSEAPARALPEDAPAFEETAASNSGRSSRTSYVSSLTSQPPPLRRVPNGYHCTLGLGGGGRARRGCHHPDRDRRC
T3 sequence (P54289 25-956 partner): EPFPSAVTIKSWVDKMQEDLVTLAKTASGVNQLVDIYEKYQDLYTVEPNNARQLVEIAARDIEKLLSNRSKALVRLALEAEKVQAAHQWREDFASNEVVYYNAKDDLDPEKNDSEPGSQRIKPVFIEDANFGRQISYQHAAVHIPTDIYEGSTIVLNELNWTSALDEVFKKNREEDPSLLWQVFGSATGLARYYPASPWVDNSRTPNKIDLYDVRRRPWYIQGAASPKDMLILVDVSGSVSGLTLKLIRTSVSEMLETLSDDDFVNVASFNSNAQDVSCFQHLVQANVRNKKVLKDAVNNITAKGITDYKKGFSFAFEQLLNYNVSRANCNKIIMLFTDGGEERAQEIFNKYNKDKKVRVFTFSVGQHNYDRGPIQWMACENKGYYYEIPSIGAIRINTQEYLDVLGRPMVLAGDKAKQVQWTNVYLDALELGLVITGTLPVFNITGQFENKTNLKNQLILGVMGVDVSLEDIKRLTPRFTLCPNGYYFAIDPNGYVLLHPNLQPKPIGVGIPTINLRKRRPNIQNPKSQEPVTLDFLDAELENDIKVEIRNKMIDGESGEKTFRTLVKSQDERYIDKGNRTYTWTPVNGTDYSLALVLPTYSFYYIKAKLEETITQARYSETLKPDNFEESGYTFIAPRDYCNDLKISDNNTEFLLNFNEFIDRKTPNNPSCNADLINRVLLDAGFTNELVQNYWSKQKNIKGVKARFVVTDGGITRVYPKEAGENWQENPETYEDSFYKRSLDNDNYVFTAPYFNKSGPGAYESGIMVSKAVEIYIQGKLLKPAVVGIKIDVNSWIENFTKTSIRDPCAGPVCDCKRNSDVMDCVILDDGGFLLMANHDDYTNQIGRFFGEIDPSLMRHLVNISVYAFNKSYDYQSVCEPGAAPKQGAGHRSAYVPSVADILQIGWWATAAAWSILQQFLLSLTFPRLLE
T3 sequence (P54289 957-1103 partner): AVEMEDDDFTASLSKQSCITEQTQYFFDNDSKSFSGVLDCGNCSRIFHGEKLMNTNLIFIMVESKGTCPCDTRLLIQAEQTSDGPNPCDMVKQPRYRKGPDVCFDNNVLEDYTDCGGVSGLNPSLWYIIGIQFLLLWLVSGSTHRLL
T3 sequence (Q02641 whole entry partner): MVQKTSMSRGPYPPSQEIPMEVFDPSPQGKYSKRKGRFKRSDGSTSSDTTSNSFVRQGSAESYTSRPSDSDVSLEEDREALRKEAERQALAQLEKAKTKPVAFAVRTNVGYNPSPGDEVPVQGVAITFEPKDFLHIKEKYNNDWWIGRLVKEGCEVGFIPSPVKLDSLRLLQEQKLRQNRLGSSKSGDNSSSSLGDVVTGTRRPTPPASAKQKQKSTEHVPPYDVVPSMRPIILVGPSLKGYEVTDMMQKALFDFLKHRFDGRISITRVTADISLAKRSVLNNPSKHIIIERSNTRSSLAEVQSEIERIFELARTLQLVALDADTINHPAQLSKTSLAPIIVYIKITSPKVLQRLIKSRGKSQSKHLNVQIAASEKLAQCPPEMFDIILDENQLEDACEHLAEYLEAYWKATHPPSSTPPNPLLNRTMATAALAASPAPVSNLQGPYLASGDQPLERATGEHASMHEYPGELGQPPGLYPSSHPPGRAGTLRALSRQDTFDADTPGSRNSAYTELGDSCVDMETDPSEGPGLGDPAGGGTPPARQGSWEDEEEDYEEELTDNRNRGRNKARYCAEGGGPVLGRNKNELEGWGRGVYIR
Protocol: as §1
The oocyte prepared in the above was placed in a chamber filled with a Ba^2+-containing recording liquid (10 mM Ba(OH)2, 90 mM NaOH, 2 mM KOH, 5 mM Hepes, 0.3 mM niflumic acid, methanesulfonic acid, pH 7.4) and fixed at −80 mV using two glass electrodes. A test pulse (200 ms width) toward 0 mV was applied at 30 second intervals and the whole-cell membrane current was measured. A +100 mV depolarization prepulse (100 ms width) that ends before 40 ms was applied every other pulse to eliminate the effect of G protein βγ subunit that binds with Ca^2+ channel to suppress opening (Kinoshita et al., supra). Based on the Ba^2+ current (IBa) as a Ca^2+ channel current, the leak current was corrected by P/4 protocol. N-(4-Acetyl-1-piperazinyl)-p-fluorobenzamide monohydrate (hereinafter to be also referred to as a test compound) was dissolved in the recording liquid containing Ba^2+ and applied.

SMILES: CC(=O)N1CCN(NC(=O)c2ccc(F)cc2)CC1.O [test compound, N-(4-Acetyl-1-piperazinyl)-p-fluorobenzamide monohydrate]
- effect on α1E channel current [1]: almost no effect
- effect on α1A channel current [2]: almost no effect
- effect on α1B channel current ([3]; 100 nM test compound, 0 mV, 200 ms test pulse, Xenopus oocyte): increase in the current
- influence on the voltage-dependency of α1B channel activation/inactivation ([3]; 100 nM test compound, varied depolarization stimulating potential and steady inactive state): almost no influence
- α1B channel current after return into basal solution and washing ([3]; after 100 nM test compound, washed): fell to the same level as that before the treatment
- potentiation of the current amplitude, channel specificity and concentration range ([3]; various concentrations, compared with α1A and α1E channels): α1B channel-specific potentiation of the current amplitude in a relatively narrow concentration range
